Values quoted from earlier work in patent US12502358B1, “Centanafadine multiphasic controlled-release pharmaceutical formulation” (Innovate Therapeutics LLC, priority 2024, dated 2025).

Columns and labels:
[1] = per BCS classification
[2] = biological target: norepinephrine reuptake transporter (NET) (Homo sapiens, UniProt P23975); conditions: rank among NET, DAT, SERT
[3] = biological target: dopamine reuptake transporter (DAT) (Homo sapiens, UniProt Q01959); conditions: fraction of the potency towards NET
[4] = biological target: serotonin reuptake transporter (SERT) (Homo sapiens, UniProt P31645); conditions: fraction of the potency towards NET
Chain of serotonin reuptake transporter (SERT) (P31645 whole entry, species assumed): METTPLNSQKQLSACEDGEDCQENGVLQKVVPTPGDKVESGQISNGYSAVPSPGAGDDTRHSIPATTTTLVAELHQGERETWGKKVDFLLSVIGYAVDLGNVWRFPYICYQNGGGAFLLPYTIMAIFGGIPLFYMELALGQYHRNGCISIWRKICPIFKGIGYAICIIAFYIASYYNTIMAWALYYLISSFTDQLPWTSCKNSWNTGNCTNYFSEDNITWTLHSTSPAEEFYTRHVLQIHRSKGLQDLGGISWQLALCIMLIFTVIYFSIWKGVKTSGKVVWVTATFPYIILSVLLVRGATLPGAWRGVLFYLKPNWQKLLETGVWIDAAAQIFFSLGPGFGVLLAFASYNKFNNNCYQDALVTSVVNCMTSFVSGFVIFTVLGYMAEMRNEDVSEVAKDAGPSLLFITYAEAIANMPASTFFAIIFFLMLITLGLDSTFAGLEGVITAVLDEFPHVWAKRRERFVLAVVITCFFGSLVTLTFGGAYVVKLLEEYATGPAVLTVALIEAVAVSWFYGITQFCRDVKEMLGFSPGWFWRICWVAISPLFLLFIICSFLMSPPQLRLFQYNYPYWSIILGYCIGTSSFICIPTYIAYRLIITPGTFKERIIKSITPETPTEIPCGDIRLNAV

Chain of dopamine reuptake transporter (DAT) (Q01959 whole entry, species assumed): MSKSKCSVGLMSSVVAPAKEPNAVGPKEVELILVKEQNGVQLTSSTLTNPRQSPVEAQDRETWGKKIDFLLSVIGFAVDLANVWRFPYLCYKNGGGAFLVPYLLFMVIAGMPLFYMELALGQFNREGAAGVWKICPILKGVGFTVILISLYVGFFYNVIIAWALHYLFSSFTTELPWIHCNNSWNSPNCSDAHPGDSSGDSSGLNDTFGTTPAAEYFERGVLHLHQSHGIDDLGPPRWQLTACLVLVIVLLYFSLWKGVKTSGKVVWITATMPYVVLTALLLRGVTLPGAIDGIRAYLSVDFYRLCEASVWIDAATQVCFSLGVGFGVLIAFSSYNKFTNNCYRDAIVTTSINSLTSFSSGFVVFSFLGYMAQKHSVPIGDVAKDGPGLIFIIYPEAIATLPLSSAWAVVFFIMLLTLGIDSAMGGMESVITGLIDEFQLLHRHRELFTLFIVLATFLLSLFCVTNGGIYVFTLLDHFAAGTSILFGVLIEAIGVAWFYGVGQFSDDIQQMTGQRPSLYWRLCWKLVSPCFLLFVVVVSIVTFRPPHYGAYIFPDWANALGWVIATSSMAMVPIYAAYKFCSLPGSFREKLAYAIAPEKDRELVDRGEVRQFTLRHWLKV
Chain of norepinephrine reuptake transporter (NET) (P23975 whole entry): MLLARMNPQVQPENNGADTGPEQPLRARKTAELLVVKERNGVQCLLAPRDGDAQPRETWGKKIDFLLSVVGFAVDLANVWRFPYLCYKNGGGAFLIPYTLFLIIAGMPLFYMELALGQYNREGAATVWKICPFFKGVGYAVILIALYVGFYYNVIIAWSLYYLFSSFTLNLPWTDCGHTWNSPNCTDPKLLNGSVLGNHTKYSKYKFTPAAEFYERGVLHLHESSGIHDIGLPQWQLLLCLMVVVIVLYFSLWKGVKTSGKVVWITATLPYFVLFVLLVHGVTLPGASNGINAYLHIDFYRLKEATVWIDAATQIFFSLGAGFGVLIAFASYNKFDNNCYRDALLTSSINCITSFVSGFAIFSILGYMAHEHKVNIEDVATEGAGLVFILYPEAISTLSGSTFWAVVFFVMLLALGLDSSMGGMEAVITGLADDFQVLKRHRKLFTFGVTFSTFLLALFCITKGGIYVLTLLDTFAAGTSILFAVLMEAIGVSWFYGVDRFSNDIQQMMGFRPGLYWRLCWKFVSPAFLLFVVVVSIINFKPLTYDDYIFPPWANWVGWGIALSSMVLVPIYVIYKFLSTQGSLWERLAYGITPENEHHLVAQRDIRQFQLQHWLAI

c1ccc2cc([C@]34CNC[C@H]3C4)ccc2c1 [Centanafadine, (1R,5S)-1-(naphthalen-2-yl)-3-azabicyclo[3.1.0]hexane]
solubility [1]: highly soluble
potency towards the norepinephrine reuptake transporter (NET) [2]: most potency
potency towards the dopamine reuptake transporter (DAT) relative to NET [3]: one-sixth as much
potency towards the serotonin reuptake transporter (SERT) relative to NET [4]: one-fourteenth as much
